Measurements as given in a melting point compilation (Tetko et al.; mined from patent text by program, amines drawn as free bases though some values may be those of a salt).

Row | Compound | melting point [°C]
1 | Cc1cc(C(C)(C)C)c(O)c(P(=O)(c2ccccc2)C2c3ccccc3-c3ccccc32)c1 (stereo unspecified) | 237 to 240
2 | O=[N+]([O-])c1cccc2ccc3c(c12)C(CCl)CN3 (stereo unspecified) | 100
3 | O=C(c1ccc([N+](=O)[O-])cc1)N1CCN(c2ccncc2)CC1 | 158 to 160
4 | CCCCCCCCCCSCCCN=C=O | 89 to 92
5 | CCOC(=O)c1c(C(C)(C)O)nc(SCC)n1Cc1ccc(-c2ccccc2-c2nnn[nH]2)cc1 | 185 to 188
6 | Cn1cccc1C=CC1=CC(=O)C(C)(C)O1 | 98.5 to 100
7 | CCCCCCc1ccc(-n2c(-c3ccc(C)cc3)cc(Br)c2-c2ccc(C)cc2)cc1 | 134 to 135
8 | CC(C)(C)OC(=O)N[C@@]1(C(=O)OC(C)(C)C)C[C@@H](F)[C@H]2[C@H](C(=O)OC(C)(C)C)[C@H]21 | 140 to 143
9 | Cc1ccc(C2=Cc3cc(C(=O)N[C@H]4CC[C@H](CN(C)C5CCOCC5)CC4)ccc3OC2)cc1 | 205 to 207
10 | S=C(NCCc1ccccc1)N1CCN(c2cnccn2)CC1 | 162 to 163
11 | OC1CSC(Oc2cc(-c3cncnc3)cnc2F)C(O)C1O (stereo unspecified) | 204 to 205
12 | CC1(C)CC(OC(=O)NNC(=O)OC2CC(C)(C)N(OC3CCCCC3)C(C)(C)C2)CC(C)(C)N1OC1CCCCC1 | 150 to 152
13 | CC(C)(C)c1ccc(S(=O)(=O)NCCCCOc2ccc(-n3ccnc3)cc2)cc1 | 138 to 140
14 | O[C@H]1c2cc(OCc3ccncc3)ccc2OC[C@H]1Cc1cccnc1 (relative stereo) | 100 to 102
15 | Cc1cc(-c2cccc(Cl)c2)nn2cnnc12 | 173 to 176
16 | CS(=O)c1ncc2ccc(=O)[nH]c2n1 (stereo unspecified) | 237 to 242
17 | CS(=O)(=O)c1ccc(C2=C(c3ccc(-c4ccsc4)cc3)C(=O)OC2)cc1 | 220 to 222
18 | CNC(=S)N1CCc2cc(S(=O)(=O)N3CC(c4ccccc4)NC3=O)ccc21 (stereo unspecified) | 217 to 219
19 | CCN1C(=O)SC(Cc2ccc(NC(=O)/C=C/c3cnn(C)c3-c3ccc(F)cc3)cc2)C1=O (stereo unspecified) | 214 to 215
20 | OC[C@H](O)CSc1ccccc1 | 79 to 81

Row | Compound | melting point [°C]
21 | O=[N+]([O-])c1cc(-c2ccncc2)ccc1O | 210 to 212
22 | CCN1CCN(Cc2ccc(-c3nc4cc(OC)cc(OC)c4c(=O)[nH]3)cc2)CC1 | 278 to 280
23 | Cc1ccc(-c2n[nH]cc2C=O)s1 | 97 to 99
24 | CNc1nc(-c2cccc(NC(=O)c3ccccc3)c2)c2cc(OCc3ccccc3)c(OC)cc2n1 | 204 to 206
25 | CCCn1c(COC)nc2c(N)nc3ccc(OCCN4CCCCC4)cc3c21 | 160 to 162
26 | CCCOc1cc(C)c(C=CC(C)=CC=CC(C)=CC(=O)OCC)c(C)c1C | 200 to 201
27 | C[C@H]1Oc2ccc(F)cc2NC(=O)[C@H]1NC(=O)OC(C)(C)C | 141 to 148
28 | CP1(=O)c2ccccc2CN1c1ccc(Oc2ccccc2)cc1 (stereo unspecified) | 176 to 177
29 | COc1cc(C(=O)c2cccnc2)cc([N+](=O)[O-])c1O | 193
30 | CC(=O)N1CC(C)(C)c2cc(OC(C)C)ccc21 | 86 to 87
31 | CC(=O)CC(=O)c1ccc(OCCCN2CCCCC2)cc1 | 43 to 45.5
32 | CC1(C)Cc2cc(O)c3c(c2C(c2ccccc2)=N1)CC(C)(C)O3 | 208 to 210
33 | CS(=O)(=O)C1Cc2cc(Cl)ccc2C1=O (stereo unspecified) | 197
34 | COc1cc2cc(/C=C/C#N)sc2cc1OC | 154 to 158
35 | O=CNc1ccc(C(=O)N(CCN2CCC(C(=O)c3ccc(F)cc3)CC2)c2cccnc2)cc1 | 147 to 148
36 | CC(C)(c1ccc2ncccc2c1)n1nnc2ccc(-c3cnn(CCO)c3)nc21 | 95 to 98
37 | N#CC1=C(C#N)NC(c2ccccc2)C(O)=N1 (stereo unspecified) | 222 to 224
38 | CC1C(C#N)=C(N)OC2=C1C(=O)CC(c1cccc3ccccc13)C2 (stereo unspecified) | 204 to 206
39 | N#Cc1c(Cc2ccccc2)nn(C2CCCC2)c1NC(=O)c1ccncc1 | 189 to 191
40 | CC(C)NC1CCn2c(CCc3ccccc3)nc3cccc1c32 (stereo unspecified) | 95.5 to 97.7

Row | Compound | melting point [°C]
41 | COc1cc(N)c2nccc(C)c2c1OC | 108 to 110
42 | O=C(CCCCCCNC(=O)c1ccc(C(C(=O)Nc2cccc3cccnc23)C(=O)Nc2cccc3cccnc23)cc1)NO | 212 to 215
43 | O=C(CC12CC3CC(CC(C3)C1)C2)Nc1c(Cl)ccc2nc(N3CCNCC3)ccc12 | 280 to 283
44 | CCCCCCN1CC(C(=O)OC)N(S(=O)(=O)c2ccc(-c3ccc(Br)cc3)cc2)CC1=O (stereo unspecified) | 127 to 129
45 | Cc1ccc(OCC=C(Cl)Cl)c(Cl)c1O | 70
46 | O=C(c1ccccc1)N1CCC(Nc2ccccc2Oc2ccc(Cl)cc2Cl)CC1 | 55 to 58
47 | CCCCCc1ncc(C(=O)OCC)c(O)n1 | 127 to 129
48 | O=C(O)CCc1ccc(CNC(=O)OCC2c3ccccc3-c3ccccc32)cc1 | 164 to 166
49 | Cc1cncc(-c2cncc(OC3SCC(O)C(O)C3O)c2)c1 (stereo unspecified) | 119 to 120
50 | O=Cc1ccc2cccc3c4cccc5cccc(c1c23)c54 | 232 to 234
51 | CC(c1ccc2c(c1)C(=O)c1ccccc1C2=O)N1CCN(C)CC1 (stereo unspecified) | 98.9 to 102
52 | COC(=O)CC(=O)c1ncccc1Cl | 113 to 116
53 | c1ccc2c(c1)Cc1cccnc1O2 | 87 to 88
54 | CCCc1nc2c(N)nc3cc(OCCN4CCCS4(=O)=O)ccc3c2s1 | 127 to 130
55 | CN(C)c1ccc(-c2cc(-c3ccccc3)nc(-c3ccccc3)c2)cc1 | 128 to 129
56 | CCOCc1nc2cnc3cc(Br)ccc3c2n1C[C@@H]1COC(C)(C)O1 | 90 to 91
57 | CCOC(=O)n1c(=O)n(CCN2CCN(c3ccccc3OC)CC2)c(=O)c2sccc21 | 121 to 122
58 | FC(F)(F)c1ccc2c(c1)N(C1=CCCN1C1=NCCC1)c1ccccc1O2 | 140 to 142
59 | c1ccc2cc3[nH]c(SCc4ncc[nH]4)nc3cc2c1 | 172
60 | CCC(=O)Nc1cccc(-c2ccnc3c(C(=O)c4ccccc4)cnn23)c1 | 172 to 174

Continued, values first:

Row | melting point [°C] | Compound
61 | 235 to 238 | CCOC(=O)c1cn(-c2nncs2)c2cc(F)c(F)cc2c1=O
62 | 43 to 49 | CCCC(C(=O)OCC)N1CC(COc2cccc(Cl)c2)OC1=O (stereo unspecified)
63 | 123 to 125 | CCCNC(=O)C(Cc1ccc2c(c1)c(Cc1ccc(C(=O)OC)cc1OC)cn2CCC)C(C)C (stereo unspecified)
64 | 119 to 120 | CCOC(=O)C1=C(CCl)NC(C)=C(C(=O)OC)C1c1cccc([N+](=O)[O-])c1 (stereo unspecified)
65 | 213 to 214 | CC(C)Cc1c2c(nn1C)c(N)nc1ccccc12
66 | 153 to 158 | CC(CO)Nc1c(F)cc2c(=O)c(C(=O)O)cn(-c3cc(N)c(F)cc3F)c2c1Cl (stereo unspecified)
67 | 195 to 196 | Cc1nc2cccc3n(CCCCNS(=O)(=O)C(F)(F)F)c(=O)c1n23
68 | 169 to 170 | O=C(O)c1cc(F)cc(-c2ccc(F)c3cc(Cc4cccc(C(F)(F)F)c4)sc23)c1
69 | 128 to 130 | COc1ccc2nn(-c3cc(OCCCO)cc(C(C)(C)C)c3O)nc2c1
70 | 300 | CCOC(=O)c1cn(C)c2cnc3cc(N4CCN(c5ccc(F)cc5)CC4)c(F)cc3c2c1=O
71 | 148 to 149 | COc1ccc(-c2ccc(C(=O)Nc3ccc4cc(CN5CCCCC5)cnc4c3C)cc2F)cc1
72 | 125 to 126 | CCCCOc1cc(CCC(=O)O)n(Cc2ccc(C(F)(F)F)cc2Cl)n1
73 | 229 to 231 | CC(=O)N1CCn2c1c(-c1ccccc1)c1ncccc1c2=O
74 | 130 to 132 | CC(=O)C=Cc1ccc(NS(C)(=O)=O)c(Oc2ccc(F)cc2F)c1
75 | 171 to 173 | Cn1cc(C(=O)NCc2ccc(Cl)cc2)c(=O)c2cc(CN3CCOCC3)cc(C#CCC[C@@H]3COC(=O)N3)c21
76 | 223 to 224 | O=C(c1ccccc1)c1[nH]c2cc(Cl)ccc2c1CC(=O)N1CCCCC1
77 | 237 to 238 | COc1nc(C)c(CC2CC2)c(C(O)c2cc(Cl)cc(C#N)c2)c1C(C)C (stereo unspecified)
78 | 179 to 180 | O=C(c1ccc(Cl)c(Cl)c1)c1ccc(O)c(Cl)c1Cl

Row | melting point [°C] | Compound
79 | 128 to 130 | CC(C)ON=Cc1nn(-c2c(Cl)cc(C(F)(F)F)cc2Cl)c(N)c1S(C)=O (stereo unspecified)
80 | 230 to 232 | COc1c(Oc2ccc3ncc([N+](=O)[O-])n3n2)cnc(CNc2nc(C)nc(C)c2Cl)c1C
81 | 127 to 129 | Cc1c(N2CCC(C(N)c3ccccn3)C2)c(F)c(N)c2c(=O)c(C(=O)O)cn(C3CC3F)c12 (stereo unspecified)
82 | 224 to 226 | COc1cc(-c2nn(C)c(C(N)=O)c2C)c(F)cc1Cl
83 | 81 to 84 | COc1ccc2cc([C@H](C)C(=O)OCCS(=O)(=O)CCO)ccc2c1
84 | 298 | COc1ccc(C(=O)Nc2c(Cl)cncc2Cl)c2c1oc1ccc(C(F)(F)F)cc12
85 | 127 to 131 | CCOC(=O)C(C)c1ccc2c(c1)sc1nc(=O)cc(-c3ccccc3)n12 (stereo unspecified)
86 | 220 to 222 | Cc1cc(C)cc(CC(C)(C)NCC(O)c2cc(OCc3ccccc3)cc3c2OCC(=O)N3)c1 (stereo unspecified)
87 | 123 to 126 | COCCOC(=O)C1=C(C)NC(C)C(C(=O)OC(C)C)(c2ccc(F)cc2F)C1 (stereo unspecified)
88 | 167 to 168 | Cc1noc(NS(=O)(=O)c2ccsc2C(=O)Nc2cc3c(cc2C#N)OCO3)c1Cl
89 | 134 to 136 | COc1ccc(CCN(C(C)=O)c2c(C)c(C)c3c(c2C)C(c2ccc(C(C)C)cc2)C(C)(C)O3)cc1 (stereo unspecified)
90 | 226 to 227 | CC(c1oc2ccccc2c(=O)c1-c1ccccc1)n1ncc2c(N)ncnc21 (stereo unspecified)
91 | 95 | CC(CN1CCCC1)N1c2ccccc2Sc2ccc(C(=O)NCc3ccccc3[N+](=O)[O-])cc21 (racemic)
92 | > 300 | CN1CCC(c2c(O)cc(O)c3c(=O)cc(-c4ccc(O)cc4Cl)oc23)C1CO (stereo unspecified)
93 | 205 to 208 | CCc1coc2c(-c3ccc(S(C)(=O)=O)cc3)c(-c3ccc(F)cc3)nn12
94 | 130 to 132 | CCN(Cc1csc(N)c1C(=O)c1ccc(Cl)cc1)c1ccccc1
95 | 119 to 120 | CCCCOc1cc(/C=C/C(=O)NS(=O)(=O)CCC(C)C)n(Cc2ccc(Cl)cc2Cl)n1
96 | 155 to 156 | CSCC(=O)Nc1cc(-c2c(-c3ccc(F)c(C)c3)nc3cccnn23)ccn1
